Experimental data as given in US20100324312A1, “NOVEL METHYLATED CATECHIN AND COMPOSITION CONTAINING THE SAME” (INCORPORATED ADMINSTRATIVE AGENCY NATIONAL AGRICULTURE AND …, priority 2007, published 2010).

Assays:
[1] = system: BMMC (mouse bone marrow-derived mast cells); test: Histamine release inhibitory activity in mouse mast cells (IgE-sensitized BMMC, DNP-HSA induced degranulation); format: cell-based; details: 12.5 and 25 μg/mL test sample, 10 min incubation, DNP-HSA antigen 20 min; histamine in supernatant relative to control (distilled water); FIG. 2; compared with epigallocatechin-3-O-gallate and epigallocatechin-3-O-(3-O-methyl)gallate
Protocol: FIG. 2 is a graph showing the histamine release inhibitory activity in mouse mast cells. In FIG. 2, numeral 1 denotes 12.5 μg/mL of epigallocatechin-3-O-gallate; numeral 2 denotes 25 μg/mL of epigallocatechin-3-O-gallate; numeral 3 denotes 12.5 μg/mL of epigallocatechin-3-O-(3-O-methyl)gallate: numeral 4 denotes 25 μg/mL of epigallocatechin-3-O-(3-O-methyl)gallate; numeral 5 denotes 12.5 μg/mL of epi(3-O-methyl)gallocatechin-3-O-(3,5-O-dimethyl)gallate; and numeral 6 denotes 25 μg/mL of epi(3-O-methyl)gallocatechin-3-O-(3,5-O-dimethyl)gallate.
The effect of epi(3-O-methyl)gallocatechin-3-O-(3,5-O-dimethyl)gallate was determined based on the histamine release inhibitory activity in mouse mast cells. Epigallocatechin-3-O-gallate and epigallocatechin-3-O-(3-O-methyl)gallate known to have stronger antiallergic activity than epigallocatechin-3-O-gallate were used as comparison substances. […] Then, DNP-HSA (antigen) was added thereto to induce degranulation (20 minutes), and the amount of histamine in the supernatant was measured by liquid chromatography. The antiallergic activity was evaluated based on the relative value with respect to the value for the control (distilled water). […]

[2] = compared with EGCG; cited from earlier work

COc1cc([C@H]2Oc3cc(O)cc(O)c3C[C@H]2OC(=O)c2cc(OC)c(O)c(OC)c2)cc(O)c1O [epi(3-O-methyl)gallocatechin-3-O-(3,5-O-dimethyl)gallate]
histamine release inhibitory activity [1]: stronger than those of the comparison substances

COc1c(O)cc(C(=O)O[C@@H]2Cc3c(O)cc(O)cc3O[C@@H]2c2cc(O)c(O)c(O)c2)cc1O [epigallocatechin-3-O-(4-O-methyl)gallate]
antiallergic activity [2]: stronger antiallergic activity than EGCG

epigallocatechin-3-O-(3-O-methyl)gallate
antiallergic activity [2]: stronger antiallergic activity than EGCG
